The target of one experiment is T1, CsiD (Escherichia coli, UniProt P76621).
T1 construct: gene glaH; full ORF, N-terminal 6xHis tag (pET28a), expressed in E. coli BL21(DE3); Fe(II); homotetramer
T1 sequence (P76621 1-325): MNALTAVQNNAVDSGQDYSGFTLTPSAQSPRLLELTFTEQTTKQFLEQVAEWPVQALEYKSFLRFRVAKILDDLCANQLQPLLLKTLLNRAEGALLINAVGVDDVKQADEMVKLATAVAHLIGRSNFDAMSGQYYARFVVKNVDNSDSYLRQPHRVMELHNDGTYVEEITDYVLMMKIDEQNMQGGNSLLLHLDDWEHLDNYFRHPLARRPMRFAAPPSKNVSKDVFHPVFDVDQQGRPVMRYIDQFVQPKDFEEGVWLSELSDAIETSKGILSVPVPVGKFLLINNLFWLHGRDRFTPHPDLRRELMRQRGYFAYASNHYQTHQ
The experiment can be described thus: CsiD activity assay, product inhibition. It is filed as biochemical. The following applies: reaction product.

A further experiment concerns the target T2, CsiR (Escherichia coli, UniProt P37338).
T2 construct: gene glaR; full ORF, N-terminal 6xHis tag (pET28a), expressed in E. coli BL21(DE3)
T2 sequence (P37338 1-220): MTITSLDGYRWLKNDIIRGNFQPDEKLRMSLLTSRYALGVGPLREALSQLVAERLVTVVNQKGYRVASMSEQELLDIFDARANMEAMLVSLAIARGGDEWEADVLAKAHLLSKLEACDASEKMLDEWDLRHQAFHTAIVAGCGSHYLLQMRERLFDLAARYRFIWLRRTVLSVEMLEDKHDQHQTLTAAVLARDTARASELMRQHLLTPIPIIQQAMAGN
The experiment can be described thus: filter binding assay with […]-labelled csiD promoter DNA. The conditions noted are these: 1 mM ligand, Tris-HCl pH 7.6, 5 mM MgCl2; allosteric relief of DNA binding.

With `O=C(O)CC[C@H](O)C(=O)O` [L-2-hydroxyglutarate], on CsiD, the weak inhibition result is listed as “We did observe weak inhibition of CsiD by its product L2HG”.
Regarding `O=C(O)CCCC(=O)O` [glutarate], the “reduced DNA binding at 1 mM” value at CsiR is “repressive effect at the csiD promoter site is specifically relieved upon GA binding”.

The record behind these values is article PMC6265302, “Widespread bacterial lysine degradation proceeding via glutarate and L-2-hydroxyglutarate” (Nature Communications, 2018).
